From ChEMBL document CHEMBL5154804, “Species-Selective Targeting of Fungal Hsp90: Design, Synthesis, and Evaluation of Novel 4,5-Diarylisoxazole Derivatives for the Combination Treatment of Azole-Resistant Candidiasis” (J Med Chem, 2022)
Active and inactive are the calls of the source. The calls are words filed in the database; no cut-off is given here.

How the values were obtained:
[1] = Metabolic stability in human liver microsomes assessed as half life in presence of NADPH cofactor under shaking condition for 10 mins measured after 5 to 60 mins by LC-MS/MS analysis; format: ADME, Microsome; settings: time 15-70 min
[2] = test system: Candida albicans; assay: Potentiation of fluconazole-induced antifungal activity against fluconazole-resistant Candida albicans 103 assessed as fluconazole MIC by checker board microdilution assay; format: functional
[3] = test system: Candida albicans; assay: Potentiation of fluconazole-induced antifungal activity against fluconazole-resistant Candida albicans 311 assessed as fluconazole MIC by checker board microdilution assay; format: functional
[4] = biological target: CYP2C19 (Homo sapiens, UniProt P33261); assay: Inhibition of CYP2C19 in human liver microsome at 10 uM using S-mephenytoin as substrate incubated for 10 mins in presence of NADPH cofactor and fluconazole by LC-MS/MS analysis; format: ADME; settings: liver microsomes, probe S-mephenytoin
[5] = biological target: CYP2C9 (Homo sapiens, UniProt P11712); assay: Inhibition of CYP2C9 in human liver microsome at 10 uM using diclofenac as substrate incubated for 10 mins in presence of NADPH cofactor by LC-MS/MS analysis; format: ADME; settings: liver microsomes, probe diclofenac
[6] = Cytotoxicity against mouse NIH3T3 cell assessed as inhibition of cell growth after 24 hrs by MTT assay; format: toxicity, cell-based; settings: NIH3T3 cells
[7] = test system: Candida albicans; assay: Synergistic antifungal activity against fluconazole-resistant Candida albicans 632 assessed as inhibition of fungal growth in presence of fluconazole by checker board microdilution assay; format: functional
[8] = test system: Candida albicans; assay: Reversal of fluconazole mediated azole resistance Candida albicans 904 assessed as downregulation of CDR2 at 32 ug/ml in presence of fluconazole by RT-PCR; format: functional, organism-based; settings: dose 32.0 µg/ml
[9] = test system: MCF7; assay: Cytotoxicity against human MCF7 cell assessed as inhibition of cell growth after 24 hrs by MTT assay; format: functional, cell-based; settings: MCF7, 24 h
[10] = test system: Rattus norvegicus; assay: In vivo antifungal activity against azole resistant Candida albicans 904 infected in rat assessed as aggregation of inflammatory leukocytes at 10 mg/kg, ip administered for 5 days, qd by PAS and HE staining based microscopy; format: functional, organism-based; settings: time 5.0 day
[11] = test system: Candida albicans; assay: Synergetic antifungal activity against fluconazole-resistant Candida albicans 901 assessed as fractional inhibitory concentration index in presence of fluconazole by checker board microdilution assay; format: functional
[12] = Stability in rat plasma assessed as compound remaining at 120 mins by LC-MS/MS analysis; format: ADME, cell-free; settings: read-out: Stability
[13] = biological target: CYP2D6 (Homo sapiens, UniProt P10635); assay: Inhibition of CYPD6 in human liver microsome at 10 uM using dextromethorphan as substrate incubated for 10 mins in presence of NADPH cofactor by LC-MS/MS analysis; format: ADME; settings: liver microsomes, probe dextromethorphan
[14] = test system: Candida albicans; assay: Synergetic antifungal activity against fluconazole-resistant Candida albicans 103 assessed as fractional inhibitory concentration index in presence of fluconazole by checker board microdilution assay; format: functional
[15] = test system: Candida albicans; assay: Synergistic antibiofilm activity in Candida albicans 904 assessed as downregulation of ALS3 at 32 ug/ml incubated for 24 hrs in presence of fluconazole by RT-PCR analysis; format: functional, organism-based; settings: dose 32.0 µg/ml
[16] = test system: Candida albicans; assay: Synergistic antifungal activity against fluconazole-resistant Candida albicans 901 assessed as inhibition of fungal growth in presence of fluconazole by checker board microdilution assay; format: functional
[17] = test system: Candida albicans; assay: Induction of morphological changes in Candida albicans 904 assessed as hyphal formation by measuring CPH1 level incubated for 4 hrs in presence of fluconazole; format: functional, organism-based
[18] = test system: Candida albicans; assay: Antibiofilm activity against Candida albicans 904 assessed as inhibition of […] metabolism within the biofilm after 48 hrs by XTT reduction assay; format: functional
[19] = test system: Candida albicans; assay: Antifungal activity against fluconazole-resistant Candida albicans 632 assessed as inhibition of fungal growth by checker board microdilution assay; format: functional
[20] = test system: Candida albicans; assay: Potentiation of fluconazole-induced antifungal activity against fluconazole-resistant Candida albicans 632 assessed as fluconazole MIC by checker board microdilution assay; format: functional
[21] = Volume of distribution in Sprague-Dawley rat at 10 mg/kg, iv measured upto 24 hrs by LC/MS/MS analysis; format: ADME, organism-based; settings: in vivo
[22] = Cytotoxicity against human BEAS-2B cell assessed as inhibition of cell growth after 24 hrs by MTT assay; format: toxicity, cell-based; settings: BEAS-2B cells
[23] = Metabolic stability in rat liver microsomes assessed as half life in presence of NADPH cofactor under shaking condition for 10 mins measured after 5 to 60 mins by LC-MS/MS analysis; format: ADME, Microsome; settings: time 15-70 min
[24] = AUC (0 to infinity) in Sprague-Dawley rat at 10 mg/kg, iv measured at upto 24 hrs by LC/MS/MS analysis; format: ADME, organism-based; parameters: dose 10 mg/kg, time < 24 hrs, route iv; settings: in vivo
[25] = test system: Candida albicans; assay: Synergistic antifungal activity against fluconazole-resistant Candida albicans 904 assessed as inhibition of fungal growth in presence of fluconazole by checker board microdilution assay; format: functional
[26] = Stability in rat plasma assessed as half life at 120 mins by LC-MS/MS analysis; format: ADME, cell-free
[27] = Stability in human plasma assessed as half life at 120 mins by LC-MS/MS analysis; format: ADME, cell-free
[28] = test system: Candida albicans; assay: Induction of morphological changes in Candida albicans 904 assessed as hyphal formation by measuring EFG1 level incubated for 4 hrs in presence of fluconazole; format: functional, organism-based
[29] = test system: RAW264.7; assay: Cytotoxicity against mouse RAW264.7 cell assessed as inhibition of cell growth after 24 hrs by MTT assay; format: functional, cell-based; settings: RAW264.7, 24 h
[30] = test system: Rattus norvegicus; assay: In vivo antifungal activity against azole resistant Candida albicans 904 infected in rat assessed as reduction in kidney fungal burden at 10 mg/kg, ip administered for 5 days, qd in presence of fluconazole; format: functional, organism-based; settings: time 5.0 day
[31] = test system: Candida albicans; assay: Synergetic antifungal activity against fluconazole-resistant Candida albicans 311 assessed as fractional inhibitory concentration index in presence of fluconazole by checker board microdilution assay; format: functional
[32] = test system: Candida albicans; assay: Synergistic antibiofilm activity in Candida albicans 904 assessed as downregulation of EFG1 at 32 ug/ml incubated for 24 hrs in presence of fluconazole by RT-PCR analysis; format: functional, organism-based; settings: dose 32.0 µg/ml
[33] = Metabolic stability in rat liver microsomes assessed as compound remaining in presence of NADPH cofactor under shaking condition for 10 mins measured after 60 mins by LC-MS/MS analysis; format: ADME, Microsome; settings: time 70 min, read-out: Stability
[34] = biological target: Heat shock protein HSP90 (Homo sapiens, UniProt P07900+P08238); assay: Binding affinity to human Hsp90 expressed in Escherichia coli by SPR assay

Chain of CYP2C9 (P11712 whole entry): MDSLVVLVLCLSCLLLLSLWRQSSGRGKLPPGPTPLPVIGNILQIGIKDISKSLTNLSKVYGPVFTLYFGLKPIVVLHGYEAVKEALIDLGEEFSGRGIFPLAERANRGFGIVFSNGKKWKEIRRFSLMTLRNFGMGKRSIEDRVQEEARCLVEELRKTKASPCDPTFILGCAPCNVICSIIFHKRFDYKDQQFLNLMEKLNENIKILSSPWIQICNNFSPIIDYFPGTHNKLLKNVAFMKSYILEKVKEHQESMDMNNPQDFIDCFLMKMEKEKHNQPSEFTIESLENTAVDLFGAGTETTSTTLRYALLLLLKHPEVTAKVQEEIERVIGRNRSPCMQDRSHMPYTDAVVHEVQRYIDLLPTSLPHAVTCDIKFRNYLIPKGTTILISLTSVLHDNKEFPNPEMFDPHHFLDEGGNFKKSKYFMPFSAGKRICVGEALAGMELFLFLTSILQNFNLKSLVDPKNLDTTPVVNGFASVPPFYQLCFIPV
Chain of CYP2D6 (P10635 whole entry): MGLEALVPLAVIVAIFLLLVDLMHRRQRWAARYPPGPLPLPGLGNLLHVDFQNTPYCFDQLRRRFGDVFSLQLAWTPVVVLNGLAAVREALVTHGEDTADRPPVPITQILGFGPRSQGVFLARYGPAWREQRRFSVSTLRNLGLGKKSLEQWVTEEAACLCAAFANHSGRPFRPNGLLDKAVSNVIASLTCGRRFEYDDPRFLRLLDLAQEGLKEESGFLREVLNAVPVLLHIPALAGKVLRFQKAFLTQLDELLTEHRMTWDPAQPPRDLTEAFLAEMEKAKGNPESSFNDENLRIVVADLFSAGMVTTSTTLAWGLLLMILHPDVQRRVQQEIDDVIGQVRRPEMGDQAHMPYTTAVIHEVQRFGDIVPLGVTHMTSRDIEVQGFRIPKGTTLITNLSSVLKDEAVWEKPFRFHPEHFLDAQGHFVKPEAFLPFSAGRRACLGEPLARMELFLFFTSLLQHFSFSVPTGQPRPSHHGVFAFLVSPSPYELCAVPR
Chain of CYP2C19 (P33261 whole entry): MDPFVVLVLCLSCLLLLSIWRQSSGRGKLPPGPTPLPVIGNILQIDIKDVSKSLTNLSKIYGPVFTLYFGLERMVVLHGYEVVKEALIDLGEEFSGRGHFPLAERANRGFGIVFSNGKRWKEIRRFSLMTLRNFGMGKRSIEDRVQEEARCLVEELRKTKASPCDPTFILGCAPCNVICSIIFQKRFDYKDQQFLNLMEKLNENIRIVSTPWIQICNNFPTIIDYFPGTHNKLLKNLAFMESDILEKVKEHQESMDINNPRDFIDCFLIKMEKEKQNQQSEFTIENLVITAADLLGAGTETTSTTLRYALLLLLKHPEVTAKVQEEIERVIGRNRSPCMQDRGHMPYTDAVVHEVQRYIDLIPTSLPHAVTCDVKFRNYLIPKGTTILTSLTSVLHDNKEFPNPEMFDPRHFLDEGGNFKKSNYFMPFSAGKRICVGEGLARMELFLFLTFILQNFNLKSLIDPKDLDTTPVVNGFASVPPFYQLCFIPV

CCNC(=O)c1noc(-c2cc(-c3ccc(C)cc3)c(O)cc2O)c1-c1ccc(CN2CCOCC2)cc1
half-life [1]: 32.1 min | MIC80 [2]: 2 µg/mL | MIC80 [3]: 2 µg/mL | inhibition at 10 min, 10 µM [4]: 56.9% | inhibition at 10 min, 10 µM [5]: 36.5% | IC50 at 24 h [6]: 21.3 µM | MIC80 [7]: 0.125 µg/mL | Activity [8]: Active | IC50 [9]: 34.1 µM | Activity [10]: Active | fractional inhibitory concentration index (FICI) [11]: 0.018 | remaining at 2 h [12]: 99.4% | inhibition at 10 min, 10 µM [13]: 36.9% | fractional inhibitory concentration index (FICI) [14]: 0.035 | Activity [15]: Active | MIC80 [16]: 0.125 µg/mL | Activity [17]: Active | MIC50 [18]: > 64 µg/mL | MIC80 [19]: > 64 µg/mL | MIC80 [20]: 2 µg/mL | Vd [21]: 11.2 L/kg | IC50 at 24 h [22]: > 50 µM | half-life [23]: 30.6 min | AUC(0-inf) [24]: 3030 ng·h/mL | MIC80 [25]: 0.25 µg/mL | half-life [26]: > 288 min | half-life [27]: > 288 min | Activity [28]: Active | IC50 [29]: 17.1 µM | Activity [30]: Active | fractional inhibitory concentration index (FICI) [31]: 0.035 | Activity [32]: Active | remaining at 1.167 h [33]: 23.6%

CNC(=O)c1noc(-c2cc(-c3ccc(C)cc3)c(O)cc2O)c1-c1ccc(CN2CCOCC2)cc1
half-life [1]: 24.8 min | MIC80 [2]: 2 µg/mL | MIC80 [3]: 2 µg/mL | inhibition at 10 min, 10 µM [5]: 25.2% | IC50 at 24 h [6]: 8.63 µM | MIC80 [7]: 0.5 µg/mL | IC50 [9]: 21.5 µM | fractional inhibitory concentration index (FICI) [11]: 0.039 | inhibition at 10 min, 10 µM [13]: 86.3% | fractional inhibitory concentration index (FICI) [14]: 0.047 | Activity [15]: Active | MIC80 [16]: 0.5 µg/mL | Activity [17]: Active | MIC50 [18]: > 64 µg/mL | MIC80 [19]: > 64 µg/mL | MIC80 [20]: 0.5 µg/mL | IC50 at 24 h [22]: 12.2 µM | MIC80 [25]: 0.25 µg/mL | half-life [27]: > 288 min | Activity [28]: Active | IC50 [29]: 11.3 µM | Kd [34]: > 25 µM | fractional inhibitory concentration index (FICI) [31]: 0.062 | Activity [32]: Active
